Experimental data from patent US12662507B2, “Cytosine-type bridged nucleoside amidite crystals and method for producing same” (Yamasa Corporation, priority 2020, dated 2026).

Assay: Stability test: storage at 50° C. in tightly sealed glass vial, HPLC purity
Assay type: physicochemical
Procedure: As used herein, the term “decomposition degree” is defined as a value obtained by subtracting a […] when the stability test is performed for a certain period of time under the following conditions. The purity can be determined by HPLC. A higher decomposition degree means that the decomposition progressed and the purity decreased.
(§1) • Temperature: 50° C.; • Storage conditions: 20 mg of crystal is placed in a glass vial and stored in a tightly sealed state; (HPLC Conditions) • Column: YMC-Triart C18, 150×4.6 mm I.D. (manufactured by YMC); • Eluent: 5 mM triethylammonium acetate (pH 7.0) containing 80 vol % acetonitrile; and • Detection method: detection by UV 280 nm.
as §1, with “each of crystals A to C or amorphous form was” for “crystal is”, “state; and • Sampling time: after 1, 2, 3, 4, 6, and 20 (days), each specimen was sampled and subjected to HPLC analysis;” for “state;”, “YMC)” for “YMC);”
The leftmost column in the table indicates the number of elapsed days, and the column “Example 1 (Crystal A)” indicates the HPLC purity of the crystal A of the 5-methylcytosine-type bridged nucleoside amidite obtained in Example 1 (R^1=a benzamido group, R^2=a methyl group, R^3=a dimethoxytrityl group) after the corresponding number of elapsed days, and the column “Example 2 (crystal B)” indicates the HPLC purity of the crystal B of the 5-methylcytosine-type bridged nucleoside amidite obtained in Example 2 (R^1=a benzamido group, R^2=a methyl group, R^3=a dimethoxytrityl group) after the corresponding number of elapsed days, and the column “Example 3 (Crystal C) indicates the HPLC purity of the crystal C of 5-methylcytosine-type bridged nucleoside amidite obtained in Example 3 (R^1=a benzamido group, R^2=a methyl group, R^3=a dimethoxytrityl group) after the corresponding number of elapsed days, and the column “Control” indicates the HPLC purity of the amorphous form used as a control after the corresponding number of elapsed days. In the table, the cells marked by “-” indicate that no measurement was performed.

[1] = HPLC purity on day 0 minus HPLC purity after 20 days at 50° C.
[2] = after 1 day at 50° C., sealed glass vial
[3] = after 2 days at 50° C., sealed glass vial
[4] = after 3 days at 50° C., sealed glass vial
[5] = after 6 days at 50° C., sealed glass vial
[6] = after 20 days at 50° C., sealed glass vial
[7] = day 0 (start of stability test at 50° C.)
[8] = after 4 days at 50° C., sealed glass vial

Row | Structure (SMILES) | Decomposition Degree [1] | HPLC purity [2] [%] | HPLC purity [3] [%] | HPLC purity [4] [%] | HPLC purity [5] [%] | HPLC purity [6] [%] | HPLC purity [7] [%] | Decomposition Degree (stored at 50° C. for 20 days, in HPLC purity) [%] | HPLC purity [8] [%]
1 | COc1ccc(C(OCC23COC(C(n4cc(C)c(NC(=O)c5ccccc5)nc4=O)O2)C3OP(OCCC#N)N(C(C)C)C(C)C)(c2ccccc2)c2ccc(OC)cc2)cc1 (centres unmarked) [Control, N^4-benzoyl-5′-O-(4,4′-dimethoxytrityl)-2′-O-4′-C-methylene-5-methylcytidine-3′-O—[O-(2-cyanoethyl)-N,N-diisopropylphosphoramidite], reference compound] | 6.6 Δ % | 98.2 | 97.9 | 97.9 | 96.9 | 92.1 | 98.7 | 6.6 | 
2 | COc1ccc(C(OCC23COC(C(n4cc(C)c(NC(=O)c5ccccc5)nc4=O)O2)C3OP(OCCC#N)N(C(C)C)C(C)C)(c2ccccc2)c2ccc(OC)cc2)cc1 (centres unmarked) [Example 1, N^4-benzoyl-5′-O-(4,4′-dimethoxytrityl)-2′-O-4′-C-methylene-5-methylcytidine-3′-O—[O-(2-cyanoethyl)-N,N-diisopropylphosphoramidite]] | 0.7 Δ % | 98.4 | 98.1 | 98.3 | 98.1 | 98.1 | 98.8 |  | 
3 | COc1ccc(C(OCC23COC(C(n4cc(C)c(NC(=O)c5ccccc5)nc4=O)O2)C3OP(OCCC#N)N(C(C)C)C(C)C)(c2ccccc2)c2ccc(OC)cc2)cc1 (centres unmarked) [Example 2, N^4-benzoyl-5′-O-(4,4′-dimethoxytrityl)-2′-O-4′-C-methylene-5-methylcytidine-3′-O—[O-(2-cyanoethyl)-N,N-diisopropylphosphoramidite]] | 0.4 Δ % | 98.7 | 98.6 |  | 98.5 | 98.3 | 98.7 |  | 98.6
4 | COc1ccc(C(OCC23COC(C(n4cc(C)c(NC(=O)c5ccccc5)nc4=O)O2)C3OP(OCCC#N)N(C(C)C)C(C)C)(c2ccccc2)c2ccc(OC)cc2)cc1 (centres unmarked) [Example 3, N^4-benzoyl-5′-O-(4,4′-dimethoxytrityl)-2′-O-4′-C-methylene-5-methylcytidine-3′-O—[O-(2-cyanoethyl)-N,N-diisopropylphosphoramidite]] | 0.5 Δ % | 98.7 | 98.6 |  | 98.5 | 98.1 | 98.6 |  | 98.5
